Measurements reported in ChEMBL document CHEMBL1139580, “Pyrrolo[1,2-a][1,4]benzodiazepine: a novel class of non-azole anti-dermatophyte anti-fungal agents” (Bioorg Med Chem Lett, 2005).
Converted amounts (≈) assume the structure as drawn.

Tests used:
[1] = Minimum inhibitory concentration against Microsporum canis B68128 by microdilution method; assay type: functional
[2] = Minimum inhibitory concentration against Trichophyton rubrum B68183 by microdilution method; assay type: functional
[3] = Minimum inhibitory concentration against Sporothrix schenckii B64284 by microdilution method; assay type: functional
[4] = Minimum inhibitory concentration against Trichophyton mentagrophytes B70554 by microdilution method; assay type: functional; settings: Trichophyton benhamiae
[5] = system: Candida parapsilosis; experiment: Minimum inhibitory concentration against Candida B66126 parapsilosis by microdilution method; assay type: functional; settings: Lodderomyces parapsilosis
[6] = system: Cryptococcus neoformans; experiment: Minimum inhibitory concentration against Cryptococcus neoformans B66663 by microdilution method; assay type: functional
[7] = system: Aspergillus fumigatus; experiment: Minimum inhibitory concentration against Aspergillus fumigatus B42928 by microdilution method; assay type: functional
[8] = Bioavailability in plasma of Microsporum canis infected guinea pig after […] administration of 2 mg/kg dose; assay type: ADME, organism-based, Cavia porcellus; settings: read-out: Activity

## CCc1ccc(C2=NCc3c(Cl)cccc3-n3cccc32)cc1
[1]
  MIC: 0.03 µM (≈ 0.00962 µg/mL)
[2]
  MIC: 0.01 µM (≈ 0.00321 µg/mL)
[3]
  MIC: 100 µM (≈ 32.1 µg/mL)
[4]
  MIC: 0.03 µM (≈ 0.00962 µg/mL)
[5]
  MIC: 0.32 µM (≈ 0.103 µg/mL)
[6]
  MIC: 100 µM (≈ 32.1 µg/mL)
[7]
  MIC: 0.32 µM (≈ 0.103 µg/mL)

## CCc1ccc(C2NCc3ccc(Cl)cc3-n3cccc32)cc1 (centres undefined)
[1]
  MIC: 1 µM (≈ 0.323 µg/mL)
[2]
  MIC: 0.1 µM (≈ 0.0323 µg/mL)
[3]
  MIC: 100 µM (≈ 32.3 µg/mL)
[4]
  MIC: 1 µM (≈ 0.323 µg/mL)
[5]
  MIC: 100 µM (≈ 32.3 µg/mL)
[6]
  MIC: 100 µM (≈ 32.3 µg/mL)
[7]
  MIC: 100 µM (≈ 32.3 µg/mL)

## CCc1ccc(C2NCc3ccccc3-n3cccc32)cc1 (centres undefined)
[1]
  MIC: 100 µM (≈ 28.8 µg/mL)
[2]
  MIC: 1 µM (≈ 0.288 µg/mL)
[3]
  MIC: 100 µM (≈ 28.8 µg/mL)
[4]
  MIC: 3.2 µM (≈ 0.923 µg/mL)
[5]
  MIC: 100 µM (≈ 28.8 µg/mL)
[6]
  MIC: 100 µM (≈ 28.8 µg/mL)
[7]
  MIC: 1 µM (≈ 0.288 µg/mL)

## CC(C)(C)c1ccc(C2NCc3c(Cl)cccc3-n3cccc32)cc1 (centres undefined)
[1]
  MIC: 0.66 µM (≈ 0.232 µg/mL)
[2]
  MIC: 1 µM (≈ 0.351 µg/mL)
[3]
  MIC: 55 µM (≈ 19.3 µg/mL)
[4]
  MIC: 1 µM (≈ 0.351 µg/mL)
[5]
  MIC: 55 µM (≈ 19.3 µg/mL)
[6]
  MIC: 100 µM (≈ 35.1 µg/mL)
[7]
  MIC: 100 µM (≈ 35.1 µg/mL)

## CCc1ccc([C@@H]2NCc3c(Cl)cccc3-n3cccc32)cc1
[1]
  MIC: 0.32 µM (≈ 0.103 µg/mL)
[2]
  MIC: 0.32 µM (≈ 0.103 µg/mL)
[3]
  MIC: 100 µM (≈ 32.3 µg/mL)
[4]
  MIC: 1 µM (≈ 0.323 µg/mL)
[5]
  MIC: 100 µM (≈ 32.3 µg/mL)
[6]
  MIC: 100 µM (≈ 32.3 µg/mL)
[7]
  MIC: 55 µM (≈ 17.8 µg/mL)

## CCc1ccc(C2NCc3c(OC)cccc3-n3cccc32)cc1 (centres undefined)
[1]
  MIC: 10 µM (≈ 3.18 µg/mL)
[2]
  MIC: 3.2 µM (≈ 1.02 µg/mL)
[3]
  MIC: 100 µM (≈ 31.8 µg/mL)
[4]
  MIC: 10 µM (≈ 3.18 µg/mL)
[5]
  MIC: 100 µM (≈ 31.8 µg/mL)
[6]
  MIC: 100 µM (≈ 31.8 µg/mL)
[7]
  MIC: 100 µM (≈ 31.8 µg/mL)

## CCc1ccc(C2NCc3c(Cl)cccc3-n3cccc32)cc1 (centres undefined)
[1]
  MIC: 0.32 µM (≈ 0.103 µg/mL)
[2]
  MIC: 0.03 µM (≈ 0.00969 µg/mL)
[3]
  MIC: 100 µM (≈ 32.3 µg/mL)
[4]
  MIC: 0.1 µM (≈ 0.0323 µg/mL)
[5]
  MIC: 1 µM (≈ 0.323 µg/mL)
[6]
  MIC: 100 µM (≈ 32.3 µg/mL)
[7]
  MIC: 3.2 µM (≈ 1.03 µg/mL)

## Clc1ccc(C2NCc3c(Cl)cccc3-n3cccc32)cc1 (centres undefined)
[1]
  MIC: 0.66 µM (≈ 0.217 µg/mL)
[2]
  MIC: 0.32 µM (≈ 0.105 µg/mL)
[3]
  MIC: 100 µM (≈ 32.9 µg/mL)
[4]
  MIC: 0.66 µM (≈ 0.217 µg/mL)
[5]
  MIC: 100 µM (≈ 32.9 µg/mL)
[6]
  MIC: 100 µM (≈ 32.9 µg/mL)
[7]
  MIC: 51.6 µM (≈ 17 µg/mL)

## CCCc1ccc(C2NCc3c(Cl)cccc3-n3cccc32)cc1 (centres undefined)
[1]
  MIC: 0.66 µM (≈ 0.222 µg/mL)
[2]
  MIC: 0.32 µM (≈ 0.108 µg/mL)
[3]
  MIC: 100 µM (≈ 33.7 µg/mL)
[4]
  MIC: 0.66 µM (≈ 0.222 µg/mL)
[5]
  MIC: 6.6 µM (≈ 2.22 µg/mL)
[6]
  MIC: 100 µM (≈ 33.7 µg/mL)
[7]
  MIC: 100 µM (≈ 33.7 µg/mL)

## CCc1ccc([C@H]2NCc3c(Cl)cccc3-n3cccc32)cc1
[1]
  MIC: 0.32 µM (≈ 0.103 µg/mL)
[2]
  MIC: 0.03 µM (≈ 0.00969 µg/mL)
[3]
  MIC: 100 µM (≈ 32.3 µg/mL)
[8]
  bioavailability: < 5%
[4]
  MIC: 0.01 µM (≈ 0.00323 µg/mL)
[5]
  MIC: 0.32 µM (≈ 0.103 µg/mL)
[6]
  MIC: 100 µM (≈ 32.3 µg/mL)
[7]
  MIC: 1 µM (≈ 0.323 µg/mL)

## Cc1ccc(C2NCc3c(Cl)cccc3-n3cccc32)cc1 (centres undefined)
[1]
  MIC: 2.1 µM (≈ 0.649 µg/mL)
[2]
  MIC: 0.1 µM (≈ 0.0309 µg/mL)
[3]
  MIC: 100 µM (≈ 30.9 µg/mL)
[4]
  MIC: 2.1 µM (≈ 0.649 µg/mL)
[5]
  MIC: 100 µM (≈ 30.9 µg/mL)
[6]
  MIC: 100 µM (≈ 30.9 µg/mL)
[7]
  MIC: 100 µM (≈ 30.9 µg/mL)

## Clc1cccc2c1CNC(c1ccc(Br)cc1)c1cccn1-2 (centres undefined)
[1]
  MIC: 0.32 µM (≈ 0.12 µg/mL)
[2]
  MIC: 0.21 µM (≈ 0.0785 µg/mL)
[3]
  MIC: 100 µM (≈ 37.4 µg/mL)
[4]
  MIC: 0.21 µM (≈ 0.0785 µg/mL)
[5]
  MIC: 100 µM (≈ 37.4 µg/mL)
[6]
  MIC: 100 µM (≈ 37.4 µg/mL)
[7]
  MIC: 10 µM (≈ 3.74 µg/mL)

## CN(C/C=C/C#CC(C)(C)C)Cc1cccc2ccccc12 [TERBINAFINE]
[1]
  MIC: 0.03 µM (≈ 0.00874 µg/mL)
[2]
  MIC: 0.003 µM (≈ 0.000874 µg/mL)
[3]
  MIC: 0.32 µM (≈ 0.0933 µg/mL)
[4]
  MIC: 0.01 µM (≈ 0.00291 µg/mL)
[5]
  MIC: 0.32 µM (≈ 0.0933 µg/mL)
[6]
  MIC: 1 µM (≈ 0.291 µg/mL)
[7]
  MIC: 0.32 µM (≈ 0.0933 µg/mL)

## CCc1ccc(C2NCc3cccc(Cl)c3-n3cccc32)cc1 (centres undefined)
[1]
  MIC: 3.2 µM (≈ 1.03 µg/mL)
[2]
  MIC: 1 µM (≈ 0.323 µg/mL)
[3]
  MIC: 100 µM (≈ 32.3 µg/mL)
[4]
  MIC: 3.2 µM (≈ 1.03 µg/mL)
[5]
  MIC: 100 µM (≈ 32.3 µg/mL)
[6]
  MIC: 100 µM (≈ 32.3 µg/mL)
[7]
  MIC: 100 µM (≈ 32.3 µg/mL)

## CCc1ccc(C2=NCc3ccccc3-n3cccc32)cc1
[1]
  MIC: 0.32 µM (≈ 0.0916 µg/mL)
[2]
  MIC: 0.065 µM (≈ 0.0186 µg/mL)
[3]
  MIC: 100 µM (≈ 28.6 µg/mL)
[4]
  MIC: 0.32 µM (≈ 0.0916 µg/mL)
[5]
  MIC: 0.32 µM (≈ 0.0916 µg/mL)
[6]
  MIC: 100 µM (≈ 28.6 µg/mL)
[7]
  MIC: 1 µM (≈ 0.286 µg/mL)

## Clc1cccc2c1CNC(c1ccccc1)c1cccn1-2 (centres undefined)
[1]
  MIC: 100 µM (≈ 29.5 µg/mL)
[2]
  MIC: 0.32 µM (≈ 0.0943 µg/mL)
[3]
  MIC: 100 µM (≈ 29.5 µg/mL)
[4]
  MIC: 100 µM (≈ 29.5 µg/mL)
[5]
  MIC: 100 µM (≈ 29.5 µg/mL)
[6]
  MIC: 100 µM (≈ 29.5 µg/mL)
[7]
  MIC: 100 µM (≈ 29.5 µg/mL)

## CCc1ccc(C2NCc3c(C)cccc3-n3cccc32)cc1 (centres undefined)
[1]
  MIC: 2.1 µM (≈ 0.635 µg/mL)
[2]
  MIC: 0.21 µM (≈ 0.0635 µg/mL)
[3]
  MIC: 100 µM (≈ 30.2 µg/mL)
[4]
  MIC: 1 µM (≈ 0.302 µg/mL)
[5]
  MIC: 55 µM (≈ 16.6 µg/mL)
[6]
  MIC: 100 µM (≈ 30.2 µg/mL)
[7]
  MIC: 100 µM (≈ 30.2 µg/mL)

## CCc1ccc(C2=NCc3ccc(Cl)cc3-n3cccc32)cc1
[1]
  MIC: 0.32 µM (≈ 0.103 µg/mL)
[2]
  MIC: 0.065 µM (≈ 0.0209 µg/mL)
[3]
  MIC: 6.6 µM (≈ 2.12 µg/mL)
[4]
  MIC: 0.1 µM (≈ 0.0321 µg/mL)
[5]
  MIC: 1 µM (≈ 0.321 µg/mL)
[6]
  MIC: 1 µM (≈ 0.321 µg/mL)
[7]
  MIC: 0.32 µM (≈ 0.103 µg/mL)

## CCc1ccc(C2NCc3c(F)cccc3-n3cccc32)cc1 (centres undefined)
[1]
  MIC: 3.2 µM (≈ 0.98 µg/mL)
[2]
  MIC: 0.32 µM (≈ 0.098 µg/mL)
[3]
  MIC: 100 µM (≈ 30.6 µg/mL)
[4]
  MIC: 1 µM (≈ 0.306 µg/mL)
[5]
  MIC: 10 µM (≈ 3.06 µg/mL)
[6]
  MIC: 100 µM (≈ 30.6 µg/mL)
[7]
  MIC: 10 µM (≈ 3.06 µg/mL)

## CCc1ccccc1C1NCc2c(Cl)cccc2-n2cccc21 (centres undefined)
[1]
  MIC: 100 µM (≈ 32.3 µg/mL)
[2]
  MIC: 10 µM (≈ 3.23 µg/mL)
[3]
  MIC: 100 µM (≈ 32.3 µg/mL)
[4]
  MIC: 100 µM (≈ 32.3 µg/mL)
[5]
  MIC: 100 µM (≈ 32.3 µg/mL)
[6]
  MIC: 100 µM (≈ 32.3 µg/mL)
[7]
  MIC: 100 µM (≈ 32.3 µg/mL)

## CCc1ccc(C2NCc3c(SC)cccc3-n3cccc32)cc1 (centres undefined)
[1]
  MIC: 3.2 µM (≈ 1.07 µg/mL)
[2]
  MIC: 0.32 µM (≈ 0.107 µg/mL)
[3]
  MIC: 100 µM (≈ 33.4 µg/mL)
[4]
  MIC: 3.2 µM (≈ 1.07 µg/mL)
[5]
  MIC: 100 µM (≈ 33.4 µg/mL)
[6]
  MIC: 100 µM (≈ 33.4 µg/mL)
[7]
  MIC: 100 µM (≈ 33.4 µg/mL)

## CCc1cccc(C2NCc3c(Cl)cccc3-n3cccc32)c1 (centres undefined)
[1]
  MIC: 1 µM (≈ 0.323 µg/mL)
[2]
  MIC: 0.1 µM (≈ 0.0323 µg/mL)
[3]
  MIC: 100 µM (≈ 32.3 µg/mL)
[4]
  MIC: 1 µM (≈ 0.323 µg/mL)
[5]
  MIC: 10 µM (≈ 3.23 µg/mL)
[6]
  MIC: 100 µM (≈ 32.3 µg/mL)
[7]
  MIC: 10 µM (≈ 3.23 µg/mL)

## CCc1ccc(C2c3cccn3-c3cccc(Cl)c3CN2C)cc1 (centres undefined)
[1]
  MIC: 100 µM (≈ 33.7 µg/mL)
[2]
  MIC: 51.6 µM (≈ 17.4 µg/mL)
[3]
  MIC: 100 µM (≈ 33.7 µg/mL)
[4]
  MIC: 55 µM (≈ 18.5 µg/mL)
[5]
  MIC: 100 µM (≈ 33.7 µg/mL)
[6]
  MIC: 100 µM (≈ 33.7 µg/mL)
[7]
  MIC: 100 µM (≈ 33.7 µg/mL)

## CCc1ccc(C2NCc3cc(Cl)ccc3-n3cccc32)cc1 (centres undefined)
[1]
  MIC: 100 µM (≈ 32.3 µg/mL)
[2]
  MIC: 3.2 µM (≈ 1.03 µg/mL)
[3]
  MIC: 100
[4]
  MIC: 51.6 µM (≈ 16.7 µg/mL)
[5]
  MIC: 100 µM (≈ 32.3 µg/mL)
[6]
  MIC: 100 µM (≈ 32.3 µg/mL)
[7]
  MIC: 100 µM (≈ 32.3 µg/mL)
